The term IC50 denotes the concentration at which inhibition is half-maximal.

The target of the test is IgE-Tb / FcεRIα-Y131A-AF488 (Homo sapiens, UniProt P01854). Nature of the test: IgE-Tb / FcεRIα-Y131A-AF488 FRET assay (protocol for examples 1 to 233). Type of test: binding. To be noted: examples 1 to 233: 5 nM IgE-Tb, 25 nM FcεRIα-Y131A-AF488, incubated 2 hours at room temperature; read-out: Y131A FRET IC50 range. The procedure, abridged: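 TR-FRET displacement with 5 nM IgE-Tb and 25 nM FcεRIα-Y131A-AF488 (final), 10-point 3-fold compound dilutions from typically 10 μM top, 2% DMSO, 2 h at room temperature. Excitation 330 nm, 520/495 nm emission ratio; MIN set with 200 nM unlabelled FcεRIα. IC50 from four-parameter logistic fit of percent inhibition.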
IgE-Tb / FcεRIα-Y131A-AF488, sequence (P01854 1-427 limits assumed, stated change not applied): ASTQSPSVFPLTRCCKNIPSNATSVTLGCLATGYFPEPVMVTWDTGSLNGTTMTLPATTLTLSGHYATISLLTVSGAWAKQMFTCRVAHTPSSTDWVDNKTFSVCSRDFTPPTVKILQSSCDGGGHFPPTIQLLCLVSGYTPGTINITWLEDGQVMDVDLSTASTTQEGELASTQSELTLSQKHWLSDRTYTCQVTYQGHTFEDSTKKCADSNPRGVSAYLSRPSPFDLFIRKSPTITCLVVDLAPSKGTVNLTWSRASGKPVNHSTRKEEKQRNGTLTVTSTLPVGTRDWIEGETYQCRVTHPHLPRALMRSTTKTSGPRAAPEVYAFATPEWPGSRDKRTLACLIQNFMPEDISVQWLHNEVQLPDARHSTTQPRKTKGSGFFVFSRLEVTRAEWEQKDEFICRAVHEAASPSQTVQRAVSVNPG

Where only a bound is given, the exact number is not on record here.

`O=C(NCC1CC1)c1c(NC(=O)C2CC2)sc2c1CC(Nc1nc(=O)cc(C(F)(F)F)[nH]1)CC2` (stereo not drawn) [Example 210, 2-(Cyclopropanecarbonylamino)-N-(cyclopropylmethyl)-5-[[4-oxo-6-(trifluoromethyl)-1H-pyrimidin-2-yl]amino]-4,5,6,7-tetrahydrobenzothiophene-3-carboxamide]: the IC50 is less than 1 µM.
Regarding `CC1CCN(C(=O)c2c(NC(=O)C3CC3)sc3c2CC(NS(C)(=O)=O)CC3)C1` (stereo not drawn) [Example 211, N-[5-(Methanesulfonamido)-3-(3-methylpyrrolidine-1-carbonyl)-4,5,6,7-tetrahydrobenzothiophen-2-yl]cyclopropanecarboxamide], the IC50 lay within 1 to 10 µM.
The figure for `CCCNC(=O)c1c(NC(=O)C2CC2)sc2c1CC(NC(=O)Nc1ccc(OC(F)(F)F)cc1)CC2` (stereo not drawn) [Example 212, 2-(Cyclopropanecarbonylamino)-N-propyl-5-[[4-(trifluoromethoxy)phenyl]carbamoylamino]-4,5,6,7-tetrahydrobenzothiophene-3-carboxamide] is less than 1 µM; for `CC(C)C(=O)Nc1nncn1[C@H]1CCc2sc(NC(=O)C3CC3)c(C(=O)NCC3CC3)c2C1` [Example 213, (5S)-2-(cyclopropanecarbonylamino)-N-(cyclopropylmethyl)-5-[3-(2-methylpropanoylamino)-1,2,4-triazol-4-yl]-4,5,6,7-tetrahydrobenzothiophene-3-carboxamide] it is less than 1 µM; for `Cc1cc(N(C)c2nncn2[C@H]2CCc3sc(NC(=O)C4CC4)c(C(=O)NCC4CC4)c3C2)n(C)n1` [Example 214, (5S)-2-(cyclopropanecarbonylamino)-N-(cyclopropylmethyl)-5-[3-[(2,5-dimethylpyrazol-3-yl)-methyl-amino]-1,2,4-triazol-4-yl]-4,5,6,7-tetrahydrobenzothiophene-3-carboxamide] it is 1 to 10 µM.
For the compound `Cc1cc(Nc2nncn2[C@H]2CCc3sc(NC(=O)C4CC4)c(S(=O)(=O)NCC4CC4)c3C2)n(C)n1` [Example 215, N-[(5S)-3-(cyclopropylmethylsulfamoyl)-5-[3-[(2,5-dimethylpyrazol-3-yl)amino]-1,2,4-triazol-4-yl]-4,5,6,7-tetrahydrobenzothiophen-2-yl]cyclopropanecarboxamide], the IC50 is less than 1 µM.
The figure for `Cc1nnc(-c2ncn([C@H]3CCc4sc(NC(=O)C5CC5)c(C(=O)NCC5CC5)c4C3)c2N)o1` [Example 216, (5S)-5-[5-amino-4-(5-methyl-1,3,4-oxadiazol-2-yl)imidazol-1-yl]-2-(cyclopropanecarbonylamino)-N-(cyclopropylmethyl)-4,5,6,7-tetrahydrobenzothiophene-3-carboxamide] is less than 1 µM; for `Cc1cc(Nc2nncn2[C@H]2CCc3sc(NC(=O)C4CC4)c(C(=O)NCC4CC4)c3C2)[nH]n1` [Example 217, (5S)-2-(cyclopropanecarbonylamino)-N-(cyclopropylmethyl)-5-[3-[(3-methyl-1H-pyrazol-5-yl)amino]-1,2,4-triazol-4-yl]-4,5,6,7-tetrahydrobenzothiophene-3-carboxamide] it is less than 1 µM.
As to `Cc1nn(C)cc1Nc1nncn1[C@H]1CCc2sc(NC(=O)C3CC3)c(C(=O)NCC3CC3)c2C1` [Example 218, (5S)-2-(cyclopropanecarbonylamino)-N-(cyclopropylmethyl)-5-[3-[(1,3-dimethylpyrazol-4-yl)amino]-1,2,4-triazol-4-yl]-4,5,6,7-tetrahydrobenzothiophene-3-carboxamide], the IC50 is less than 1 µM.
The figure for `Cn1nc(C2CC2)cc1Nc1nncn1[C@H]1CCc2sc(NC(=O)C3CC3)c(C(=O)NCC3CC3)c2C1` [Example 219, (5S)-2-(cyclopropanecarbonylamino)-N-(cyclopropylmethyl)-5-[3-[(5-cyclopropyl-2-methyl-pyrazol-3-yl)amino]-1,2,4-triazol-4-yl]-4,5,6,7-tetrahydrobenzothiophene-3-carboxamide] is less than 1 µM.
The figure for `CC(C)c1cc(Nc2nncn2[C@H]2CCc3sc(NC(=O)C4CC4)c(C(=O)NCC4CC4)c3C2)n(C)n1` [Example 220, (5S)-2-(cyclopropanecarbonylamino)-N-(cyclopropylmethyl)-5-[3-[(5-isopropyl-2-methyl-pyrazol-3-yl)amino]-1,2,4-triazol-4-yl]-4,5,6,7-tetrahydrobenzothiophene-3-carboxamide] is less than 1 µM.
The figure for `Cn1nc(C(F)(F)F)cc1Nc1nncn1[C@H]1CCc2sc(NC(=O)C3CC3)c(C(=O)NCC3CC3)c2C1` [Example 221, (5S)-2-(cyclopropanecarbonylamino)-N-(cyclopropylmethyl)-5-[3-[[2-methyl-5-(trifluoromethyl)pyrazol-3-yl]amino]-1,2,4-triazol-4-yl]-4,5,6,7-tetrahydrobenzothiophene-3-carboxamide] is less than 1 µM.
As for `Cc1cc(Nc2nncn2[C@H]2CCc3sc(NC(=O)C4CC4)c(C(=O)NCC4CC4)c3C2)n(C(C)C)n1` [Example 222, (5S)-2-(cyclopropanecarbonylamino)-N-(cyclopropylmethyl)-5-[3-[(2-isopropyl-5-methyl-pyrazol-3-yl)amino]-1,2,4-triazol-4-yl]-4,5,6,7-tetrahydrobenzothiophene-3-carboxamide], the IC50 was less than 1 µM.
Turning to `Cc1cc(Nc2nncn2[C@H]2CCc3sc(NC(=O)C4CC4)c(C(=O)NCC4CC4)c3C2)n(C2CCOC2)n1` (stereo partly drawn) [Example 223, (5S)-2-(cyclopropanecarbonylamino)-N-(cyclopropylmethyl)-5-[3-[(5-methyl-2-tetrahydrofuran-3-yl-pyrazol-3-yl)amino]-1,2,4-triazol-4-yl]-4,5,6,7-tetrahydrobenzothiophene-3-carboxamide], the IC50 is less than 1 µM.
To `Cn1nccc1Nc1nncn1[C@H]1CCc2sc(NC(=O)C3CC3)c(C(=O)NCC3CC3)c2C1` [Example 224, (5S)-2-(cyclopropanecarbonylamino)-N-(cyclopropylmethyl)-5-[3-[(2-methylpyrazol-3-yl)amino]-1,2,4-triazol-4-yl]-4,5,6,7-tetrahydrobenzothiophene-3-carboxamide] belongs less than 1 µM; to `CCn1nc(C)cc1Nc1nncn1[C@H]1CCc2sc(NC(=O)C3CC3)c(C(=O)NCC3CC3)c2C1` [Example 225, (5S)-2-(cyclopropanecarbonylamino)-N-(cyclopropylmethyl)-5-[3-[(2-ethyl-5-methyl-pyrazol-3-yl)amino]-1,2,4-triazol-4-yl]-4,5,6,7-tetrahydrobenzothiophene-3-carboxamide], less than 1 µM; to `Cc1cc(Nc2nncn2[C@H]2CCc3sc(NC(=O)C4CC4)c(C(=O)NCC4CC4)c3C2)n(C2CC2)n1` [Example 226, (5S)-2-(cyclopropanecarbonylamino)-N-(cyclopropylmethyl)-5-[3-[(2-cyclopropyl-5-methyl-pyrazol-3-yl)amino]-1,2,4-triazol-4-yl]-4,5,6,7-tetrahydrobenzothiophene-3-carboxamide], less than 1 µM.
The figure for `COc1nn(C)cc1Nc1nncn1[C@H]1CCc2sc(NC(=O)C3CC3)c(C(=O)NCC3CC3)c2C1` [Example 227, (5S)-2-(cyclopropanecarbonylamino)-N-(cyclopropylmethyl)-5-[3-[(3-methoxy-1-methy-pyrazol-4-yl)amino]-1,2,4-triazol-4-yl]-4,5,6,7-tetrahydrobenzothiophene-3-carboxamide] is less than 1 µM; for `CCc1cc(Nc2nncn2[C@H]2CCc3sc(NC(=O)C4CC4)c(C(=O)NCC4CC4)c3C2)n(C)n1` [Example 228, (5S)-2-(cyclopropanecarbonylamino)-N-(cyclopropylmethyl)-5-[3-[(5-ethyl-2-methyl-pyrazol-3-yl)amino]-1,2,4-triazol-4-yl]-4,5,6,7-tetrahydrobenzothiophene-3-carboxamide] it is less than 1 µM; for `Cn1nc(C(F)F)cc1Nc1nncn1[C@H]1CCc2sc(NC(=O)C3CC3)c(C(=O)NCC3CC3)c2C1` [Example 229, (5S)-2-(Cyclopropanecarbonylamino)-N-(cyclopropylmethyl)-5-[3-[[5-(difluoromethyl)-2-methyl-pyrazol-3-yl]amino]-1,2,4-triazol-4-yl]-4,5,6,7-tetrahydrobenzothiophene-3-carboxamide] it is less than 1 µM.
Take `Cc1cn(C)nc1Nc1nncn1[C@H]1CCc2sc(NC(=O)C3CC3)c(C(=O)NCC3CC3)c2C1` [Example 230, (5S)-2-(Cyclopropanecarbonylamino)-N-(cyclopropylmethyl)-5-[3-[(1,4-dimethylpyrazol-3-yl)amino]-1,2,4-triazol-4-yl]-4,5,6,7-tetrahydrobenzothiophene-3-carboxamide]: the IC50 is less than 1 µM.
The figure for `COC(=O)c1cc(Nc2nncn2[C@H]2CCc3sc(NC(=O)C4CC4)c(C(=O)NCC4CC4)c3C2)n(C)n1` [Example 231, Methyl 5-[[4-[(5S)-2-(cyclopropanecarbonylamino)-3-(cyclopropylmethylcarbamoyl)-4,5,6,7-tetrahydrobenzothiophen-5-yl]-1,2,4-triazol-3-yl]amino]-1-methyl-pyrazole-3-carboxylate] is less than 1 µM; for `Cn1nc(C(F)(F)F)cc1Nc1nccn1[C@H]1CCc2sc(NC(=O)C3CC3)c(C(=O)NCC3CC3)c2C1` [Example 232, (5S)-2-(Cyclopropanecarbonylamino)-N-(cyclopropylmethyl)-5-[2-[[2-methyl-5-(trifluoromethyl)pyrazol-3-yl]amino]imidazol-1-yl]-4,5,6,7-tetrahydrobenzothiophene-3-carboxamide] it is less than 1 µM.
Take `Cn1nc(C(=O)O)cc1Nc1nncn1[C@H]1CCc2sc(NC(=O)C3CC3)c(C(=O)NCC3CC3)c2C1` [Example 233, 5-[[4-[(5S)-2-(Cyclopropanecarbonylamino)-3-(cyclopropylmethylcarbamoyl)-4,5,6,7-tetrahydrobenzothiophen-5-yl]-1,2,4-triazol-3-yl]amino]-1-methyl-pyrazole-3-carboxylic acid]: the IC50 was less than 1 µM.
